# Measured values published in patent US11472791B2 (Incyte Corporation, priority 2019, dated 2022).
# Target: CDK2/Cyclin E1 (Homo sapiens (Human), UniProt P24941)
# Test: CDK2/Cyclin E1 HTRF enzyme activity assay
# Format: biochemical
# Conditions: 1 mM ATP
# Description: Assays are conducted in white 384-well polystyrene plates in a final reaction volume of 8 μL. […] HTRF signals are read after 1 hour at room temperature on a PHERAstar FS plate reader (BMG Labtech). Data is analyzed with IDBS XLFit and GraphPad Prism 5.0 software using a three or four parameter dose response curve to determine IC50 for each compound.
row,Structure (SMILES),IC50
1,"CC(C)(O)Cn1cc(-c2nc(NC3CCN(S(=O)(=O)CCCN4C[C@@H]5C[C@H]4CO5)CC3)ncc2C(F)(F)F)cn1 [Example 222, 1-(4-(2-((1-((3-((1S,4S)-2-Oxa-5-azabicyclo[2.2.1]heptan-5-yl)propyl)sulfonyl)piperidin-4-yl)amino)-5-(trifluoromethyl)pyrimidin-4-yl)-1H-pyrazol-1-yl)-2-methylpropan-2-ol]",< 50 nM
2,"COC(=O)N[C@H]1CC[C@@H](NCc2ccc(-n3cc(-c4nc(NC5CCN(S(C)(=O)=O)CC5)ncc4C#N)cn3)c(Cl)c2)C1 [Example 280, Methyl ((1S,3R)-3-((3-chloro-4-(4-(5-cyano-2-((1-(methylsulfonyl)piperidin-4-yl)amino)pyrimidin-4-yl)-1H-pyrazol-1-yl)benzyl)amino)cyclopentyl)carbamate]",< 50 nM
3,"CCNCc1ccc(-n2cc(-c3nc(NC4CCN(S(C)(=O)=O)CC4)ncc3C#N)cn2)c(Cl)c1 [Example 115, 4-(1-(2-Chloro-4-((ethylamino)methyl)phenyl)-1H-pyrazol-4-yl)-2-((1-(methylsulfonyl)piperidin-4-yl)amino)pyrimidine-5-carbonitrile]",< 50 nM
4,"CC(C)(O)Cn1cc(-c2nc(NC3CCN(S(=O)(=O)C4CCC(N5CCC5)CC4)CC3)ncc2C(F)(F)F)cn1 (single isomer, unassigned) [90 (peak 1), 1-(4-(2-((1-((4-(Azetidin-1-yl)cyclohexyl)sulfonyl)piperidin-4-yl)amino)-5-(trifluoromethyl)pyrimidin-4-yl)-1H-pyrazol-1-yl)-2-methylpropan-2-ol]",< 50 nM
5,"[2H]C([2H])([2H])NCc1ccc(-n2cc(-c3nc(NC4CCN(S(=O)(=O)C5CC5)CC4)ncc3C#N)cn2)c(Cl)c1 [Example 141, 4-(1-(2-Chloro-4-(((methyl-d3)amino)methyl)phenyl)-1H-pyrazol-4-yl)-2-((1-(cyclopropylsulfonyl)piperidin-4-yl)amino)pyrimidine-5-carbonitrile]",< 50 nM
6,"CS(=O)(=O)N1CCC(Nc2ncc(C#N)c(-c3cnn(-c4ccc(CN[C@H]5CC[C@@H](CO)CC5)cc4Cl)c3)n2)CC1 [Example 289, 4-(1-(2-chloro-4-((((1s,4s)-4-(hydroxymethyl)cyclohexyl)amino)methyl)phenyl)-1H-pyrazol-4-yl)-2-((1-(methylsulfonyl)piperidin-4-yl)amino)pyrimidine-5-carbonitrile]",< 50 nM

# The remaining lines, values ahead:
row,IC50,Structure (SMILES)
1,< 50 nM,"[2H]C([2H])([2H])NCc1ccc(-n2cc(-c3nc(N[C@H]4CCN(S(=O)(=O)c5cn(C)cn5)C[C@H]4C)ncc3C#N)cn2)c(Cl)c1 [Example 148, 4-(1-(2-Chloro-4-(((methyl-d3)amino)methyl)phenyl)-1H-pyrazol-4-yl)-2-(((3R,4S)-3-methyl-1-((1-methyl-1H-imidazol-4-yl)sulfonyl)piperidin-4-yl)amino)pyrimidine-5-carbonitrile]"
2,< 50 nM,"CS(=O)(=O)N1CCC(Nc2ncc(C#N)c(-c3cnn(-c4ccc(CN[C@H]5CC[C@](O)(C(F)(F)F)CC5)cc4Cl)c3)n2)CC1 [Example 177, 4-(1-(2-Chloro-4-((((1s,4s)-4-hydroxy-4-(trifluoromethyl)cyclohexyl)amino)methyl)phenyl)-1H-pyrazol-4-yl)-2-((1-(methylsulfonyl)piperidin-4-yl)amino)pyrimidine-5-carbonitrile]"
3,< 50 nM,"CCNCc1ccc(-n2cc(-c3nc(NC4CCN(S(=O)(=O)c5cn(C)cn5)CC4)ncc3C#N)cn2)c(C)n1 [Example 127, 4-(1-(6-((Ethylamino)methyl)-2-methylpyridin-3-yl)-1H-pyrazol-4-yl)-2-((1-((1-methyl-1H-imidazol-4-yl)sulfonyl)piperidin-4-yl)amino)pyrimidine-5-carbonitrile]"
4,< 50 nM,"CC(C)(O)Cn1cc(-c2nc(NC3CCN(S(=O)(=O)CCCN4CC(O)C4)CC3)ncc2C(F)(F)F)cn1 [Example 225, 1-(3-((4-((4-(1-(2-Hydroxy-2-methylpropyl)-1H-pyrazol-4-yl)-5-(trifluoromethyl)pyrimidin-2-yl)amino)piperidin-1-yl)sulfonyl)propyl)azetidin-3-ol]"
